Here are results for eight compounds from patent publication US20160235724A1, “TETRAHYDROPYRIDOETHERS FOR THE TREATMENT OF STARGARDT'S DISEASE” (KATAIRO GMBH, priority 2013, published 2016).

Where “and” joins values, the source holds several entries; their conditions need not be identical. Identical values can stand only once.

One series has as its system Cynomolgus monkey. As to the kind of experiment: 52-week oral administration in the Cynomolgus monkey, conventional histopathology of the eye. The class given is in vivo. Here is the method:
Soraprazan was administrated in oral application of 6, 12 and 24 mg/kg/day for 52 weeks in the Cynomolgus monkey.
Some monkeys from the control and the high-dose group were subjected to a recovery period of 3 months.

The test system of series [1] is lipofuscin in RPE cells of ABCA4−/− mice. In words: Quantification and ultrastructural (TEM) analysis of lipofuscin in RPE after single intravitreal injection in ABCA4−/− mice (Stargardt's disease model). The settings on record: single intravitreal injection 0.32 mg. The class given is in vivo, mouse. Here is the method:
Pigmented ABCA4^−/− mice (129S4/SvJae-ABCA4^tm1Ght) were provided by Gabriel Travis (David Geffen School of Medicine, University of California, Los Angeles, Calif.) and bred in the Biomedical Sciences division, University of Oxford. All experiments were conducted in female mice. The animals were kept in a 12 hour light (<100 lux)/dark cycle, with food and water available ad libitum. All animal breeding and experimental procedures were performed under approval of local and national ethical and legal authorities, and were conducted in compliance with the ARVO statement for the Use of Animals in Ophthalmic and Vision Research.
(§1) Two μl PBS containing a total amount of 0.32 mg Soraprazan in suspension were injected into the vitreous of three 12 months old ABCA4^−/− mice.
(§2) The eyes were enucleated after four weeks. Two untreated aged matched ABCA4^−/− mice served as controls. After enucleation, the eyes were cleaned of orbital tissue and, after removal of the cornea, were fixed overnight at 4° C. in 2% glutaraldehyde in 0.1 M cacodylate buffer (pH 7.4) containing 100 mM sucrose. After washing with cacodylate buffer, areas of interest in flat mount preparations were excised and post-fixed with 1% osmium tetroxide in 0.1 M cacodylate buffer at room temperature for 1 h. In some parts of the eyes osmication was omitted which preserved the autofluorescence of lipofuscin. Dehydration was then started by a series of incubations in 30, 50, and 70% ethanol. The samples were stained with saturated uranyl acetate. Dehydration was continued by incubations in 70, 80, 95, 100% ethanol and propylene oxide. The samples were then embedded in Epon (SPI-Pon™812 Epoxy Embedding Kit, SPI supplies, West Chester, Pa.). For light and fluorescence microscopy, staining with osmium and uranylacetate was omitted.
Ultrathin Epon sections (70 nm) from WT control eyes and ABCA4^−/− eyes were post-stained with lead citrate and investigated under a transmission electron microscope (TEM; Model 902 A, Carl Zeiss, Oberkochen, Germany). For statistical analysis, the areas occupied by lipofuscin granules were quantified in 8-10 micrographs from each group. […] For lipofuscin quantification, image analysis software (iTEM, Olympus Soft imaging Solutions, Munster, Germany) was used. For each image, the total area of RPE cytoplasm was determined. […] The area fraction of lipofuscin/melanolipofuscin is expressed as area in μm^2 occupied by lipofuscin per 100 μm^2 RPE cytoplasm.
Statistical significance for the ultrastructural evaluation of lipofuscin granules was determined by using Dunnett's test and the JMP9 statistical program (SAS; Heidelberg, Germany). […]

Another series deals with RPE cells. The settings on record: known from the literature; cited from earlier work.
Series [2] deals with lipofuscin in RPE cells of ABCA4−/− mice. As to the kind of experiment: Fluorescence microscopy of autofluorescent lipofuscin granules in RPE semithin sections of ABCA4−/− mice. The settings on record: 12-month-old ABCA4−/− mice, 4 weeks after single intravitreal injection of 0.32 mg, qualitative. In kind it is in vivo, mouse. The protocol: as §1
as §2, with “The samples were stained with saturated uranyl acetate. Dehydration was continued by incubations in 70, 80, 95, 100% ethanol and propylene oxide. The samples were then embedded in Epon (SPI-Pon™812 Epoxy Embedding Kit, SPI supplies, West Chester, Pa.).” left out
Autofluorescent lipofuscin and melanolipofuscin granules were photographed in semi thin sections using a fluorescence microscope (Zeiss Axioplan2 imaging, excitation 370/36 nm, emission 575/15 nm, 40× objective) connected to a personal computer equipped with a CDD camera. Since the granules could not clearly be separated from each other and lipofuscin cannot be differentiated from melanolipofuscin, the quantification of lipofuscin granules was performed using electron microscopy.

A word on the melting point: it is the temperature, or range, at which the solid turns liquid. Regarding `CCO[C@@H]1c2ccn3c(C)c(C)nc3c2N[C@H](c2ccccc2)[C@H]1O` [Example 3, (7R,8R,9R)-2,3-Dimethyl-7-ethoxy-8-hydroxy-9-phenyl-7,8,9,10-tetrahydro-imidazo [1,2-h][1,7]naphthyridine], the melting point fell in the range of 188 to 190 °C.

`CO[C@H]1c2ccn3c(C)c(C)nc3c2N[C@@H](c2ccccc2)[C@@H]1O` [Example 1B, (7S,8S,9S)-2,3-Dimethyl-8-hydroxy-7-methoxy-9-phenyl-7,8,9,10-tetrahydro-imidazo [1,2-h][1,7] naphthyridine] had a melting point of 161 to 162 °C.

`CO[C@@H]1[C@@H](c2ccccc2)Nc2c(ccn3c(C)c(C)nc23)[C@H]1OC` [Example 8, (7R,8R,9R)-2,3-Dimethyl-7,8-dimethoxy-9-phenyl-7,8,9,10-tetrahydro-imidazo[1,2-h][1,7]naphthyridine] had a melting point of 155 to 156 °C.

Take `Cc1nc2c3c(ccn2c1C)[C@H](OC(C)C)[C@H](O)[C@@H](c1ccccc1)N3` [Example 7, (7S,8R,9R)-2,3-Dimethyl-8-hydroxy-9-phenyl-7-(2-propoxy)-7,8,9,10-tetrahydro-imidazo [1,2-h][1,7]naphthyridine]: the melting point is 168 to 169 °C.

For the compound `COCCO[C@@H]1c2ccn3c(C)c(C)nc3c2N[C@H](c2ccccc2)[C@H]1O` [Soraprazan, (7R,8R,9R)-2,3-Dimethyl-8-hydroxy-7-(2-methoxyethoxy)-9-phenyl-7,8,9,10-tetrahydro-imidazo [1,2-h][1,7]naphthyridine], the conventional histopathology findings entry in the series on Cynomolgus monkey (oral 6 mg/kg/day for 52 weeks) is on record as “no alterations”. Also, the conventional histopathology findings result in the series on Cynomolgus monkey (oral 12 mg/kg/day for 52 weeks) is listed as “no alterations”. For the same compound, in the series with Cynomolgus monkey (oral 24 mg/kg/day for 52 weeks), the “monkeys showing migration of individual macrophages beneath the RPE and/or into the subretinal space” value is “Three out of 12” and the “photoreceptors facing the depigmented RPE” value is listed as “stayed healthy”. The “monkeys with depigmentation of RPE cells” value in the series with Cynomolgus monkey (oral 24 mg/kg/day for 52 weeks, among the 3 monkeys with macrophage migration) is given as “Two of these 3”. The “percent area occupied by lipofuscin in RPE cell cytoplasm (median)” value in series [1] (12-month-old ABCA4−/− mice, eyes enucleated after four weeks, untreated median 12.92%, p<0.0001, Dunnett's test) was 6.42%. The “electron-opaque lipofuscin granules in RPE (TEM) compared to controls” value in series [1] (12-month-old ABCA4−/− mice, four weeks) is on record as “significantly reduced in number”. The “appearance of retinas of treated animals” value in series [1] (ABCA4−/− mice) was “removing lipofuscin. Retinas of treated animals made a healthy”. Besides, the “lipofuscin content of RPE cells after treatment (study overview result)” value in series [1] (ABCA4−/− mice, 44 retinal areas, p < 0.0001) is “significantly reduced and 1. Lipofuscin is removed from ABCA4^−/− mouse RPE cells after”. Besides, the “removal of "natural" lipofuscin from RPE cells” value with RPE cells is given as “remove such lipofuscin from RPE cells”. In addition, in series [2], the “lipofuscin in RPE under fluorescent light compared to untreated mice” value is on record as “lipofuscin was reduced”.

Turning to `CO[C@H]1c2ccn3c(C)c(C)nc3c2N[C@H](c2ccccc2)[C@H]1O` [Example 2A, (7S,8R,9R)-2,3-Dimethyl-8-hydroxy-7-methoxy-9-phenyl-7,8,9,10-tetrahydro-imidazo [1,2-h][1,7]naphthyridine], the melting point was in the range of 108 to 110 °C.

For the compound `CO[C@@H]1c2ccn3c(C)c(C)nc3c2N[C@@H](c2ccccc2)[C@@H]1O` [Example 2B, (7R,8S,9S)-2,3-Dimethyl-8-hydroxy-7-methoxy-9-phenyl-7,8,9,10-tetrahydro-imidazo[1,2-h][1,7]naphthyridine], the melting point lay within 171 to 172 °C.

In turn, `CCO[C@H]1c2ccn3c(C)c(C)nc3c2N[C@H](c2ccccc2)[C@H]1O` [Example 4, (7S,8R,9R)-2,3-Dimethyl-7-ethoxy-8-hydroxy-9-phenyl-7,8,9,10-tetrahydro-imidazo [1,2-h][1,7]naphthyridine] came in with a melting point of 135 to 137 °C.
